Results published in PubChem BioAssay AID256 (DTP/NCI, 2004).
“And” between values parts separate entries of the source, which are not always exact repeats. Equal entries are not always repeated. Toxic doses and inconclusive results are not listed. The calls were made as follows: active = survival T/C of 150% or more; inactive = T/C below 125% in these data.

System: CD2F1 mice, L1210 leukemia ip, survival T/C
Experiment: NCI In Vivo Anticancer Drug Screen. Data for tumor model L1210 Leukemia (intraperitoneal) in CD2F1 (CDF1) mice
Settings: endpoint: mean survival time, higher = longer survival
Procedure, shortened: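 Each value reflects a quotient of treated over vehicle control outcomes in mice with a transplanted tumor.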

[1] = dose: 100.0 mg/kg/injection, schedule: Q04DX003 (ip), vehicle: saline with Tween-80
[2] = dose: 200.0 mg/kg/injection, schedule: Q04DX003 (ip), vehicle: saline with Tween-80
[3] = dose: 400.0 mg/kg/injection, schedule: Q04DX003 (ip), vehicle: saline with Tween-80
[4] = dose: 100.0 mg/kg/injection, schedule: Q01DX001 (ip), vehicle: saline
[5] = dose: 200.0 mg/kg/injection, schedule: Q01DX001 (ip), vehicle: saline
[6] = dose: 400.0 mg/kg/injection, schedule: Q01DX001 (ip), vehicle: saline
[7] = dose: 100.0 mg/kg/injection, schedule: Q01DX001 (ip), vehicle: saline with Tween-80
[8] = dose: 200.0 mg/kg/injection, schedule: Q01DX001 (ip), vehicle: saline with Tween-80
[9] = dose: 400.0 mg/kg/injection, schedule: Q01DX001 (ip), vehicle: saline with Tween-80
[10] = dose: 200.0 mg/kg/injection, schedule: Q01DX009 (ip), vehicle: saline
[11] = dose: 400.0 mg/kg/injection, schedule: Q01DX009 (ip), vehicle: saline
[12] = dose: 50.0 mg/kg/injection, schedule: Q01DX009 (ip), vehicle: saline with Tween-80
[13] = dose: 100.0 mg/kg/injection, schedule: Q01DX009 (ip), vehicle: saline with Tween-80
[14] = dose: 200.0 mg/kg/injection, schedule: Q01DX009 (ip), vehicle: saline with Tween-80
[15] = dose: 100.0 mg/kg/injection, schedule: Q04DX002 (ip), vehicle: saline with Tween-80
[16] = dose: 200.0 mg/kg/injection, schedule: Q04DX002 (ip), vehicle: saline with Tween-80
[17] = dose: 400.0 mg/kg/injection, schedule: Q04DX002 (ip), vehicle: saline with Tween-80

Measured: T/C

CCCCCCC(O)CCCCCCCCCCC(=O)O (stereo not drawn)
inactive: [1] 98 % of control | [2] 92 % of control | [3] 90 % of control

OCc1cc2ccccc2cc1Br
inactive: dose: 50.0 mg/kg/injection, schedule: Q01DX001 (ip), vehicle: saline 89 % of control | [4] 93 % of control | [5] 95 % of control | [6] 100 % of control

Cc1cc(CSc2ssc(=S)c2-c2ccccc2)c(CSc2ssc(=S)c2-c2ccccc2)cc1C
inactive: [7] 98 % of control | [8] 98 % of control | [9] 97 % of control

O=S(=O)(/C(=C\c1ccccc1)c1ccccc1)c1ccccc1
inactive: dose: 100.0 mg/kg/injection, schedule: Q04DX003 (ip), vehicle: saline 90 % of control | [10] 90 % of control | dose: 200.0 mg/kg/injection, schedule: Q04DX003 (ip), vehicle: saline 92 % of control | [11] 88 % of control | dose: 400.0 mg/kg/injection, schedule: Q04DX003 (ip), vehicle: saline 90 % of control

CC(=O)NS(=O)(=O)c1ccc([NH-])cc1.CC(=O)NS(=O)(=O)c1ccc([NH-])cc1.[I][Pt+2][I]
inactive: dose: 25.0 mg/kg/injection, schedule: Q04DX003 (ip), vehicle: saline with Tween-80 96 % of control | dose: 50.0 mg/kg/injection, schedule: Q04DX003 (ip), vehicle: saline with Tween-80 94 % of control | [1] 107 % of control | [2] 100 % of control | [3] 103 % of control

CC(NC(=O)C(CSC(c1ccccc1)(c1ccccc1)c1ccccc1)NC(c1ccccc1)(c1ccccc1)c1ccccc1)C(=O)O (stereo not drawn)
inactive: dose: 150.0 mg/kg/injection, schedule: Q01DX001 (ip), vehicle: saline 96 % of control

CC(=O)Oc1ccc2ncccc2c1Cc1c(OC(C)=O)ccc2ncccc12
inactive: dose: 75.0 mg/kg/injection, schedule: Q01DX001 (ip), vehicle: saline 90 % of control | dose: 300.0 mg/kg/injection, schedule: Q01DX001 (ip), vehicle: saline 91 % of control

COCc1ccc(C(=O)O)cc1
inactive: [7] 105 % of control | [8] 96 % of control | [9] 97 % of control

O=C1c2ccccc2C(=O)c2cc(N3C(=O)C=CC3=O)ccc21
inactive: [4] 97 % of control | [5] 96 % of control

O=C(Nc1nccs1)c1ccc([N+](=O)[O-])cc1
inactive: [7] 95 % of control | [8] 88 % of control | [9] 100 % of control

COc1cc(C=C(C(C)=O)C(C)=O)ccc1O
inactive: [12] 98 % of control | [13] 101 % of control | [14] 98 % of control

CCOC(=O)C(O)C(C)(Cl)c1ccccc1 (stereo not drawn)
inactive: dose: 25.0 mg/kg/injection, schedule: Q04DX002 (ip), vehicle: saline with Tween-80 98 % of control | dose: 50.0 mg/kg/injection, schedule: Q04DX002 (ip), vehicle: saline with Tween-80 102 % of control | [15] 95 % of control | [16] 95 % of control

C[n+]1ccccc1
inactive: dose: 100.0 mg/kg/injection, schedule: Q01DX009 (ip), vehicle: saline 97 % of control | dose: 100.0 mg/kg/injection, schedule: Q04DX002 (ip), vehicle: other 96 % of control | [10] 101 % of control | dose: 200.0 mg/kg/injection, schedule: Q04DX002 (ip), vehicle: other 93 % of control | [11] 97 % of control | dose: 400.0 mg/kg/injection, schedule: Q04DX002 (ip), vehicle: other 96 % of control

O=S(=O)(F)c1cccc(Cl)c1C[P+](c1ccccc1)(c1ccccc1)c1ccccc1
inactive: dose: 12.5 mg/kg/injection, schedule: Q01DX001 (ip), vehicle: Klucel (hydroxypropylcellulose) (HPC) 103 % of control | dose: 25.0 mg/kg/injection, schedule: Q01DX001 (ip), vehicle: Klucel (hydroxypropylcellulose) (HPC) 115 % of control

CC(=O)OCC1OC(n2ncc3c(Nc4ccccc4)ncnc32)C(OC(C)=O)C1OC(C)=O (stereo not drawn)
inactive: dose: 25.0 mg/kg/injection, schedule: Q01DX009 (ip), vehicle: saline with Tween-80 93 % of control | [12] 100 % of control | [13] 87 % of control | [14] 100 % of control | dose: 400.0 mg/kg/injection, schedule: Q01DX009 (ip), vehicle: saline with Tween-80 100 % of control

O=C1C(C2CC3c4[nH]c5ccccc5c4CCN3C2=O)CC2c3[nH]c4ccccc4c3CCN12 (stereo not drawn)
inactive: [15] 93 % of control | [16] 93 % of control | [17] 93 % of control

C=C1C(=O)OC2CC(C)C3C(O)C(O)C(O)C3(C)CC12 (stereo not drawn)
inactive: [1] 102 % of control | [2] 104 % of control

CN(C1=CC(=O)C(N(C)C2CCCCC2)=CC1=O)C1CCCCC1
inactive: dose: 3.75 mg/kg/injection, schedule: Q01DX009 (ip), vehicle: saline 94 % of control | dose: 3.75 mg/kg/injection, schedule: Q04DX003 (ip), vehicle: saline 103 % of control | dose: 7.5 mg/kg/injection, schedule: Q01DX009 (ip), vehicle: saline 90 % of control | dose: 7.5 mg/kg/injection, schedule: Q04DX003 (ip), vehicle: saline 101 % of control | dose: 15.0 mg/kg/injection, schedule: Q01DX009 (ip), vehicle: saline 89 % of control | dose: 15.0 mg/kg/injection, schedule: Q04DX003 (ip), vehicle: saline 98 % of control

O=C1c2ccccc2C(=O)c2c(O)c(N3CCC(C(=O)O)CC3)cc(O)c21
inactive: dose: 12.5 mg/kg/injection, schedule: Q01DX005 (ip), vehicle: other 106 % of control | dose: 25.0 mg/kg/injection, schedule: Q01DX005 (ip), vehicle: other 104 % of control | dose: 50.0 mg/kg/injection, schedule: Q01DX005 (ip), vehicle: other 106 % of control | dose: 100.0 mg/kg/injection, schedule: Q01DX005 (ip), vehicle: other 96 % of control | dose: 200.0 mg/kg/injection, schedule: Q01DX005 (ip), vehicle: other 98 % of control

O=C(O)Cc1cc(O)c(CC(=O)O)cc1O
inactive: [15] 95 % of control | [16] 95 % of control | [17] 91 % of control

C=CC1CN2CCC1CC2C(O)c1ccnc2ccc(OC)cc12 (stereo not drawn) (tested in a mixture with another compound)
inactive: [12] 92 % of control and 95 % of control | [4] 95 % of control and 89 % of control | [13] 103 % of control and 98 % of control | [1] 99 % of control and 93 % of control | [5] 96 % of control | [14] 88 % of control and 95 % of control | [2] 92 % of control and 90 % of control | [6] 89 % of control
